10 compounds from ChEMBL document CHEMBL1136833, “Novel non-peptide inhibitors targeting death receptor-mediated apoptosis” (Bioorg Med Chem Lett, 2003) can be followed below.

Structures are written as SMILES. Activity calls are given as the source filed them. The calls are words filed in the database; no cut-off is given here.

In assay [1] the test system is Jurkat. The assay is described as follows: Effective dose to inhibit FasL-induced apoptosis in Jurkat cells (Type II). The class given is functional. The settings on record: Homo sapiens, read-out: ED50 (the source's name).
Assay [2] deals with Jurkat. The assay can be described thus: Effective dose to inhibit staurosporine-induced apoptosis in Jurkat cells (Type II). The note with it: Homo sapiens, read-out: ED50 (the source's name). The class given is functional.
Assay [3] has as its system Jurkat. The assay is described as follows: Cytotoxicity against Jurkat cell growth (Type II). The class given is functional, cell-based. The settings on record: Homo sapiens.
The subject of assay [4] is SKW 6.4. The assay can be described thus: Cytotoxicity against SK W6.4 cell growth (Type I). The format is functional, cell-based. The settings on record: Homo sapiens.
In assay [5] the test system is SKW 6.4. The assay is described as follows: Effective dose to inhibit staurosporine-induced apoptosis in SK W6.4 cells (Type I). The format is functional. The settings on record: Homo sapiens, read-out: ED50 (the source's name).
Assay [6] has as its system SKW 6.4. The assay can be described thus: Effective dose to inhibit FasL-induced apoptosis in SK W6.4 cells (Type I). The class given is functional. The note with it: Homo sapiens, read-out: ED50 (the source's name).
The subject of assay [7] is Jurkat. The assay is described as follows: Effective dose to inhibit FasL-induced apoptosis in Jurkat cells (Type II); NE=no effect. The class given is functional, cell-based. The settings on record: Homo sapiens.
The test system of assay [8] is Jurkat. The assay can be described thus: Effective dose to inhibit staurosporine-induced apoptosis in Jurkat cells (Type II); NE=no effect. The format is functional, cell-based. The note with it: Homo sapiens.
For assay [9], the system named is SKW 6.4. The assay can be described thus: Effective dose to inhibit FasL-induced apoptosis in SK W6.4 cells (Type I); NE=no effect. The format is functional, cell-based. The note with it: Homo sapiens.
Assay [10] has as its system SKW 6.4. The assay can be described thus: Effective dose to inhibit staurosporine-induced apoptosis in SK W6.4 cells (Type I); NE=no effect. The class given is functional, cell-based. The settings on record: Homo sapiens.

In the case of `C/C=C/C1=C(CO)[C@@H](O)[C@@H]2O[C@@H]2C1=O`, the EC50 in assay [1] is 25 µM; in [2], more than 80 µM; in [5] it was more than 80 µM; in [6], 20 µM. The figures for the IC50 in [3] and in assay [4] were 60 µM and 80 µM, respectively.
For `C/C=C/C1=C(CO)[C@H](OC)[C@H]2O[C@H]2C1=O`, the EC50 was 25 µM in [1], more than 80 µM in assay [2], more than 80 µM in assay [5] and 20 µM in assay [6]. In addition, the 50% inhibitory concentration (IC50) in [3] and in [4] was more than 80 µM each time.
Take `C/C=C/C1=C(CO)[C@H](O)[C@H]2O[C@H]2C1=O`: the EC50 in assay [1] is 6 µM; in assay [2], more than 80 µM; in [5], more than 80 µM; in assay [6] it was 5 µM. Also, the IC50 in [3] and in [4] was more than 80 µM throughout.
Turning to `O=C1C=C(CO)[C@H](O)[C@H]2O[C@@H]12`, the EC50 in [1] was 18 µM; in assay [2], more than 80 µM; in assay [5], more than 80 µM; in assay [6], 10 µM. Moreover, the concentration for half-maximal inhibition (IC50) in assay [3] and in assay [4] was more than 80 µM throughout.
In the case of `C=CC1=C(CO)[C@H](O)[C@H]2O[C@H]2C1=O`, the EC50 in [1] was 6 µM; in assay [2], more than 80 µM; in assay [5], more than 80 µM; in assay [6] it was 4 µM. Also, the 50% inhibitory concentration (IC50) in assay [3] and in assay [4] was more than 80 µM each time.
Take `C/C=C(\C)C1=C(CO)[C@H](O)[C@H]2O[C@H]2C1=O`: the EC50 is 10 µM in assay [1], more than 80 µM in assay [2], more than 80 µM in assay [5] and 10 µM in assay [6]. For the same compound, the IC50 in assay [3] and in assay [4] was more than 80 µM each time.
Consider `O=C1C(/C=C/c2ccccc2)=C(CO)[C@H](O)[C@H]2O[C@@H]12`, for which the ED50 result in assay [7], in [8], in [9] and in assay [10] was “inactive” throughout. Moreover, the IC50 (usually the concentration that inhibits the measured activity by half) was 20 µM in [3] and 30 µM in assay [4].
As to `C/C=C/C1=C(CO)C(=O)[C@H]2O[C@H]2C1=O`, the ED50 entry in assay [7], in assay [8], in assay [9] and in assay [10] was “inactive” throughout. The concentration for half-maximal inhibition (IC50) stood at 8 µM in assay [3] and 9 µM in [4].
As to `CCCC/C=C/C1=C(CO)C(=O)[C@H]2O[C@H]2C1=O`, the ED50 entry in assay [7], in assay [8], in [9] and in assay [10] was “inactive” in each case. The IC50 in assay [3] turned out to be 10 µM; in [4], 7 µM.
Regarding `CCCC/C=C/C1=C(CO)[C@H](O)[C@H]2O[C@H]2C1=O`, the ED50 result in assay [7], in [8] and in assay [10] was “inactive” in each case. The figures for the half-inhibitory concentration (IC50) in assay [3] and in [4] were 15 µM and 35 µM, respectively. Besides, the EC50 in assay [6] stood at 10 µM.
